This is an account of results in patent US11883468B2, “Compositions and methods to suppress tumor growth in bone, prevent cachectic muscle loss, and preserve skeletal integrity” (United States Government As Represented By The Department …, priority 2019, dated 2024).

In one data set the test system is MDA-MB-231 BC cells. The experiment in a line: EVOCA with MDA-MB-231 cells, tumor gene mRNA by PCR. The data set is classed as cell-based, human. The following applies: 7d EVOCA. On the procedure: FIGS. 7A, 7B, and 7C show the effects of bPTH7-34DD on MDA-MB-231; 7d EVOCA, PCR as done in FIG. 5.
(§1) EVOCA (ex vivo organ co-culture assay) of breast cancer cells and bone: Segments of neonatal mouse bone are prepared by a modification of Mohammad et al [2008]. Calvariae from euthanized 14 day old Swiss Webster pups are cut into 5 mm disks with a biopsy punch, yielding two disks (hemi-calvariae) per pup, and placed into wells of uncoated 24-well plates. Calvariae from βArr2−/− and +/+ littermates, as available, can be shipped in sterile tubes in standard tissue culture medium by overnight FedEx from the Luttrell laboratory at Medical University of South Carolina. Bones shipped overnight in media survive the shipping and give reproducible results, compared to freshly harvested bones. […] At the end of the incubation, bone are either fixed and decalcified for routine histology or homogenized for RNA isolation with a bead beater, using QIAGEN RNeasy mini kits, converted to cDNA (Biorad iScript,), and analyzed by quantitative PCR using Biorad SYBR green PCR kits and a Biorad iCycler single-color real-time detection system. […] EVOCA cultures can be analyzed by histology and IHC staining. […]

The subject of another data set is bone. Conditions: cited from earlier work.
Data set [1] deals with MDA-MB-231 breast cancer cells. As to the kind of experiment: EVOCA (ex vivo organ co-culture assay of tumor + bone), tumor burden by SSQ-PCR for hRPL32. Conditions: 7d EVOCA, wt bones. In kind it is cell-based, human. The method, then: 7D EVOCA. Tumor burden by SSQ-PCR for hRPL32.
as §1, with “bones. Cancer cells (2-10×10^3, depending on cell types and ability to adhere to bones; e.g., 2,000 for MDA-MB-231) are added in 0.5 ml BGJb medium (Life Technologies) +10% fetal calf serum and incubated at 37° C. in 5% CO2.” for “bones.”

In the next data set the test system is calvarial osteoblasts. Conditions: osteoblasts from treated mice; cited from earlier work.
Where [2] appears, read: 4 or 8 weeks, once-daily injection.
[3] abbreviates: continuous infusion, 40 μg/kg/d.

Take `Fc1ccc(Cl)cc1-c1nc(Nc2ccncc2)c2nccnc2n1` [SD208]: the “tumor hPTHrP mRNA” value with MDA-MB-231 BC cells is on record as “not seen”.

Turning to `CC[C@H](C)[C@H](NC(=O)[C@H](CCC(=O)O)NC(=O)[C@H](CO)NC(=O)[C@@H](NC(=O)[C@@H](N)CO)C(C)C)C(=O)N[C@@H](CCC(N)=O)C(=O)N[C@@H](CC(C)C)C(=O)N[C@@H](CCSC)C(=O)N[C@@H](Cc1cnc[nH]1)C(=O)N[C@@H](CC(N)=O)C(=O)N[C@@H](CC(C)C)C(=O)NCC(=O)N[C@@H](CCCCN)C(=O)N[C@@H](Cc1cnc[nH]1)C(=O)N[C@@H](CC(C)C)C(=O)N[C@@H](CC(N)=O)C(=O)N[C@@H](CO)C(=O)N[C@@H](CCSC)C(=O)N[C@@H](CCC(=O)O)C(=O)N[C@@H](CCCN=C(N)N)C(=O)N[C@H](C(=O)N[C@@H](CCC(=O)O)C(=O)N[C@@H](Cc1c[nH]c2ccccc12)C(=O)N[C@@H](CC(C)C)C(=O)N[C@@H](CCCN=C(N)N)C(=O)N[C@@H](CCCCN)C(=O)N[C@@H](CCCCN)C(=O)N[C@@H](CC(C)C)C(=O)N[C@@H](CCC(N)=O)C(=O)N[C@@H](CC(=O)O)C(=O)N[C@H](C(=O)N[C@@H](Cc1cnc[nH]1)C(=O)N[C@@H](CC(N)=O)C(=O)N[C@@H](Cc1ccccc1)C(=O)O)C(C)C)C(C)C` [hPTH1-34], in the data set with bone (setting [2]), the “cortical bone parameters (periosteal circumference and cortical thickness)” value was “increased only by hPTH1-34”; the “mineral apposition (MAR, BFR)” value is on record as “equivalently increased”; the “tibial trabecular bone parameters (BV/TV, trabecular number)” value is “increased by both”. Moreover, in the data set on bone (setting [3]), the “elevation of urinary calcium excretion” value was 5 ×; the “mRNA for Dars, aspartyl-tRNA synthetase, in bone” value was “increased”; the “mRNA of Gab 1 in bone” value is reported as “doubled”. Moreover, the serum osteocalcin result in the data set with bone (once-daily injection) is given as “equivalently raised”. In the data set with bone (quantitative histomorphometry), the “osteoblast number and osteoid surface” value is listed as “increased by both”; the osteoclast numbers result was “increased only by hPTH1-34”. The “MDA-MB-231 tumor growth in bone” value in data set [1] is “increased”. The “anabolic markers of Obl activity (RUNX2, Alk Phos, Col1A1)” value with calvarial osteoblasts is given as “strongly increased”.
